The target of one assay is T1, FGFR3 (Homo sapiens, UniProt P22607).
T1 construct: purchased Upstate
Description: FGFR3 in vitro kinase inhibitory activity assay. The note with it: read-out: FGFR3 IC50(μM) or % I. Format: biochemical. How it is done:
(§1) FGFR3, VEGFR2 and PDGFR in vitro Kinase Inhibitory Activity Assays
(§2) Enzymes (from Upstate), prepared at 2× final concentration, were incubated with test compounds, biotinylated Flt3 substrate (biotin-VASSDNEYFYVDF) (Cell Signalling Technology Inc.) and ATP in the appropriate assay buffer (Table 1). The reaction was allowed to proceed for 3 hours (FGFR3), 1 hour (VEGFR2, PDGFR-beta) at room temperature on a plate shaker at 700 rpm before being stopped with 35 mM EDTA, pH 8 (FGFR3, VEGFR2) or 55 mM EDTA, pH 8 (PDGFR-beta). 5× detection mix/50 mM HEPES pH 7.5, 0.1% BSA, 11.34 nM Eu-anti-pY (PY20) (PerkinElmer) 74 nM SA-XL665 (Cisbio) for FGFR3, 50 mM HEPES, pH 7.5, 0.1% BSA, 11.34 nM Eu-anti-pY (PY20), 187.5 nM SA-XL665 for VEGFR2 and 50 mM HEPES, pH 7.5, 0.1% BSA, 11.34 nM Eu-anti-pY (PT66) (PerkinElmer), 375 nM SA-XL665 (Cisbio) for PDGFR-beta) was then added to each well and the plate sealed and incubated at room temperature for one hour on a plate shaker at 700 rpm. The plate was then read on a Packard Fusion plate reader or a BMG Pherastar both in TRF mode.

The next assay addresses T2, VEGFR2 (Homo sapiens, UniProt P35968).
T2 construct: purchased Upstate
The assay is described as follows: VEGFR2 in vitro kinase inhibitory activity assay. Format: biochemical. The settings on record: read-out: VEGFR2 IC50(μM) or % I. How it is done: as §1, §2
Kinase Assay buffers were:
B: 50 mM HEPES pH 7.5, 6 mM MnCl2, 1 mM DTT, 0.01% TritonX-100, 0.1 mM Sodium orthovanadate

Assay [1] has as its system parental wild-type Ba/F3 cells. Description: Ba/F3 (WT) cell proliferation assay (Alamar Blue). Format: cell-based, murine. The settings on record: Mus musculus, BaF3, 72 h; % at 10.0 μM; read-out: BaF3 WT prolif. As to the method: (§3) Ba/F3-TEL-FGFR3 & Ba/F3 (WT) Cell Proliferation Assays
(§4) Stably transfected Ba/F3-TEL-FGFR3 cells were plated out into black 96-well tissue culture plates with clear bottoms in RPMI medium containing 10% FBS and 0.25 mg/ml G418 at a density of 5×10^3 cells/well (200 μl per well). The parental wild-type Ba/F3 cells (DSMZ no.: ACC 300) were plated out into black 96-well tissue culture plates with clear bottoms in RPMI medium containing 10% FBS and 2 ng/ml mouse IL-3 (R&D Systems) at a density of 2.5×10^3 cells/well (200 μl per well). Plates were placed in an incubator overnight before adding the compounds the following day. Dilutions of compounds were made in DMSO starting at 10 mM and were diluted into the wells to give a final DMSO concentration of 0.1% in assay. Compounds were left on the cells for 72 hours before the plates were removed from the incubator and 20 μl of Alamar Blue™ (Biosource) was added to each well. Plates were placed in the incubator for 4-6 hours before reading plates at 535 nm (excitation)/590 nm (emission) on a Fusion plate reader (Packard). Where inhibition is high an IC50 can be determined.

For another assay, the target named is T3, Ba/F3-TEL-FGFR3 cells (Homo sapiens, UniProt P22607).
T3 construct: fused on or other part: TEL (ETV6) N-terminal oligomerising part fused to the FGFR3 kinase part; P41212 (Transcription factor ETV6)
The assay is described as follows: Ba/F3-TEL-FGFR3 cell proliferation assay (Alamar Blue). It counts as cell-based, murine. The settings on record: 72 hours; read-out: BaF3-TEL-FGFR3 prolif. As to the method: as §3, §4

T2 sequence (P35968 20-1356): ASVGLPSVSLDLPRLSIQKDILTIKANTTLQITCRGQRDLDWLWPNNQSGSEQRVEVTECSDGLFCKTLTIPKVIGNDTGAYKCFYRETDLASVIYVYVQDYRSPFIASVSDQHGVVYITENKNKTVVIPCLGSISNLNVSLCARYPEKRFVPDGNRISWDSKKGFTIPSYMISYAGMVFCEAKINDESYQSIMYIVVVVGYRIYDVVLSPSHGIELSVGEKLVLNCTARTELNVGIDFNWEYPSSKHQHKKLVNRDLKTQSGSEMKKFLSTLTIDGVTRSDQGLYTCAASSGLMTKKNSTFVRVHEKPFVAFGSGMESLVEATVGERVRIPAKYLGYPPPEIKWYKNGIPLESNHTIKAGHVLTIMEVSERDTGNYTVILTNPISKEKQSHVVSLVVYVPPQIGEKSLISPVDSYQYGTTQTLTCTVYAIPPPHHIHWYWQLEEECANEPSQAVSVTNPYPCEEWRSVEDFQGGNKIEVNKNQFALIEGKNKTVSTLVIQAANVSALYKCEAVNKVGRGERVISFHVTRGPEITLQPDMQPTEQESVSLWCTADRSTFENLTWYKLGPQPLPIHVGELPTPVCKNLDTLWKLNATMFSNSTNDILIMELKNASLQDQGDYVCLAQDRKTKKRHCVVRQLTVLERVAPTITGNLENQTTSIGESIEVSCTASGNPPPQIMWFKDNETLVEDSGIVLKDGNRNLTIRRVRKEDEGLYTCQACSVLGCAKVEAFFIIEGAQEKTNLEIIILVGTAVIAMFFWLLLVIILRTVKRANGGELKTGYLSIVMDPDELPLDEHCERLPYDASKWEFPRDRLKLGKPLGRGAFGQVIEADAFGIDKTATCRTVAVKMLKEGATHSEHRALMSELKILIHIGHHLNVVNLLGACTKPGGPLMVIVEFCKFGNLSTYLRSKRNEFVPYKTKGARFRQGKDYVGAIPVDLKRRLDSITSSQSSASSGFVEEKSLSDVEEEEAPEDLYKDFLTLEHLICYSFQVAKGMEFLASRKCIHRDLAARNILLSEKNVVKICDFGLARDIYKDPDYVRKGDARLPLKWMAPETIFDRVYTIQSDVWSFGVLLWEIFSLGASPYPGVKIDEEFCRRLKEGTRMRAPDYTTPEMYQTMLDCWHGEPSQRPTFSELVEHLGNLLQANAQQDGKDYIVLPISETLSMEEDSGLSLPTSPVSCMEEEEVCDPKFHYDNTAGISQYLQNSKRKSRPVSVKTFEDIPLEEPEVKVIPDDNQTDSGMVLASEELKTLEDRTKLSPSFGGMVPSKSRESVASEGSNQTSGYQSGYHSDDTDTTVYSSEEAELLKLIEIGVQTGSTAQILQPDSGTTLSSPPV
T3 sequence (P22607 whole entry, change not shown, the tested form may be a part): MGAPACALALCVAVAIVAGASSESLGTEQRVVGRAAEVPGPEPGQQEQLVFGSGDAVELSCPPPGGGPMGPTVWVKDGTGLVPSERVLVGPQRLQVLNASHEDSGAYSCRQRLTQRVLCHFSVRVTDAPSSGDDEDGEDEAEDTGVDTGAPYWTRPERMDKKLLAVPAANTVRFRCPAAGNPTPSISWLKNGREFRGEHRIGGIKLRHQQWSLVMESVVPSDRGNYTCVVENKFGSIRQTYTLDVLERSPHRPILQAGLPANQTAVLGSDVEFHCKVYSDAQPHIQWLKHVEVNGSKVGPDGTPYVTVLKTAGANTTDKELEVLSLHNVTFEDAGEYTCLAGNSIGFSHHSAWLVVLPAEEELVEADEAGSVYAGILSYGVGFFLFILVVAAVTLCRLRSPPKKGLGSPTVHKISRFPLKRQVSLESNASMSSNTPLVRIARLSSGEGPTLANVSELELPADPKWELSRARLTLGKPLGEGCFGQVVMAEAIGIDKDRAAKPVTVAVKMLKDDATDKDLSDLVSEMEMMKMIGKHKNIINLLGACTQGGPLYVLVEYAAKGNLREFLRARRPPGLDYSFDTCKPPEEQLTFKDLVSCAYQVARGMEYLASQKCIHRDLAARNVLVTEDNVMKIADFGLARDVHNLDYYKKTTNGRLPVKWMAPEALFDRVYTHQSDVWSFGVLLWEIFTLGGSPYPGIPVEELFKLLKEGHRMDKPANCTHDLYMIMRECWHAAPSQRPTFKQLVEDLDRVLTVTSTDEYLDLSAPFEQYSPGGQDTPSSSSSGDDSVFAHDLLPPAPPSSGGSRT
T1 sequence (P22607 23-806): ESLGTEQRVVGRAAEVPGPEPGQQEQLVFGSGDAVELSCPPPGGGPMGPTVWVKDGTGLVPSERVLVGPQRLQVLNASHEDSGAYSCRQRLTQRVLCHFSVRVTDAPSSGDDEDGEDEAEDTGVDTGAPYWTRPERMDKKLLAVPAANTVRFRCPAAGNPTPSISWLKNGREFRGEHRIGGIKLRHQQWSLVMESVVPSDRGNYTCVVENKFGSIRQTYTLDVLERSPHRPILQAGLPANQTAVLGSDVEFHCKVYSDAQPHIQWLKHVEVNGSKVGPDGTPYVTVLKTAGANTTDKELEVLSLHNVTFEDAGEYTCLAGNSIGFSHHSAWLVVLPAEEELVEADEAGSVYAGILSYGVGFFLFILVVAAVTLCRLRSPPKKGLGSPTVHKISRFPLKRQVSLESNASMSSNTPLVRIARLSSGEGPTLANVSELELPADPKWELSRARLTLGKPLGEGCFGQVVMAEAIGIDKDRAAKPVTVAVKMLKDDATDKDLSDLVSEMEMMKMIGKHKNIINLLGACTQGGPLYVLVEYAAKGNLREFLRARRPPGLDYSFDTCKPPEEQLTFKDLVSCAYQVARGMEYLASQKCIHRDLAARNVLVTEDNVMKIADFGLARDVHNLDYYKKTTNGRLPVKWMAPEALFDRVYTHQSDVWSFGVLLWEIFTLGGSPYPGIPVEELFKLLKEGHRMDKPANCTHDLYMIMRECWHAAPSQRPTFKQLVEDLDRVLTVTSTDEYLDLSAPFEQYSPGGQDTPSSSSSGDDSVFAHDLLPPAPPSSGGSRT

In the case of `CC(C)Oc1cc(NC(=O)NCC(F)(F)F)cc(-c2cnc3cc(-c4nnco4)ccn23)c1` [Compound F-22, 1-[3-Isopropoxy-5-(7-[1,3,4]oxadiazol-2-yl-imidazo[1,2-a]pyridin-3-yl)-phenyl]-3-(2,2,2-trifluoro-ethyl)-urea], the IC50 on FGFR3 was 0.041 µM; at VEGFR2 it was 1.1 µM. Moreover, in assay [1], the inhibition at 10 µM came to 19%. For the same compound, the GI50 at Ba/F3-TEL-FGFR3 cells was 1300 nM.

Source of the values: patent US8722687B2, “Imidazo [1,2-A]pyridine derivatives as FGFR kinase inhibitors for use in therapy” (Astex Therapeutics Ltd, priority 2009, dated 2014).
